Molecular target: T1, Recombinant human ASK1 kinase (Homo sapiens, UniProt Q99683)
T1 construct: purchased Invitrogen Inc
T1 sequence (Q99683 1-1374): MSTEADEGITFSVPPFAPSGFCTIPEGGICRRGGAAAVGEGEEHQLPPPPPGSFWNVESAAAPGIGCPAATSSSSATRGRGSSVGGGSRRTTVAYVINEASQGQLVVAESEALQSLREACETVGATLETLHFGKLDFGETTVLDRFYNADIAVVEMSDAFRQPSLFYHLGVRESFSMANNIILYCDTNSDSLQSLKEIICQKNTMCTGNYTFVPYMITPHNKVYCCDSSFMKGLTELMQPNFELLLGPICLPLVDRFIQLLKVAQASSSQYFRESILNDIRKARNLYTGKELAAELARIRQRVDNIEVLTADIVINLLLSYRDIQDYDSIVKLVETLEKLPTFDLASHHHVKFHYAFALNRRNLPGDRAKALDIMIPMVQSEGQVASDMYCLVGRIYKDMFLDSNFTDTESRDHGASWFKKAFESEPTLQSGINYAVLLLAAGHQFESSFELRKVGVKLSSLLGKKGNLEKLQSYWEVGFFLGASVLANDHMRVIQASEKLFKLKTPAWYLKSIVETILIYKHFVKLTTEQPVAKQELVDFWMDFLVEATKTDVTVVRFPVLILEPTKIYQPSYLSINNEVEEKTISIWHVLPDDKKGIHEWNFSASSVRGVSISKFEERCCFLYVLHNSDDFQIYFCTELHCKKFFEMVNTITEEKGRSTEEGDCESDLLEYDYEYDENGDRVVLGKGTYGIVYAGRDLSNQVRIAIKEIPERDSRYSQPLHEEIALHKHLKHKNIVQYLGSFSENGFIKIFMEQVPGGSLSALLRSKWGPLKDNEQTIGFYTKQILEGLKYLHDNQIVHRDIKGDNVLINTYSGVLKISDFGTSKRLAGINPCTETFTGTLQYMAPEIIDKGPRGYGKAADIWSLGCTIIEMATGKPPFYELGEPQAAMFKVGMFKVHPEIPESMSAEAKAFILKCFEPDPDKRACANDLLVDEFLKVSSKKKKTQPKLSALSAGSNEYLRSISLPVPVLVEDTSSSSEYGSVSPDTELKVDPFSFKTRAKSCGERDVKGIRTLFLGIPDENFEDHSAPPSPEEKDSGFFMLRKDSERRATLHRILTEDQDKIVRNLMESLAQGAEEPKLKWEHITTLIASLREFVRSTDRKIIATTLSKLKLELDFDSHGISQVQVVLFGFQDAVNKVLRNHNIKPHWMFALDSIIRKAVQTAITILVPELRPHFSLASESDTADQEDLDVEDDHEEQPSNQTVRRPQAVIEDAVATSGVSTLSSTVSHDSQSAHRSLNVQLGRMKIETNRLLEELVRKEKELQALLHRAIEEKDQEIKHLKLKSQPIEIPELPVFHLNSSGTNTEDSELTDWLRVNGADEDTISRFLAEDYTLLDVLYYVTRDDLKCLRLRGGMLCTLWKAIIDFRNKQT
Assay: ASK1 kinase HTRF assay (KinEASE-STK)
Assay type: biochemical
Conditions: HTRF detection; 3 nM ASK1 kinase, 1 uM STK-substrate-biotin
Protocol: Reagents: Recombinant human ASK1 kinase was from Invitrogen Inc. HTRF KinEASE™-STK S3 kit was obtained from Cisbio (Bedford, Mass.). All other reagents were of the highest grade commercially available.
Assay: The assay measures the phosphorylation level of a biotinylatd peptide substrate by the ASK1 kinase using HTRF detection. ASK1 kinase assay is based on HTRF KinEASE™-STK manual from Cisbio. Test compound, 1 uM STK-substrate-biotin, 3 nM of ASK1 kinase are incubated with 1*Kinase buffer with 5 mM MgCl2 and 1 mM DTT. 250 nM Sa-XL 665(4*) and STK-antibody-Cryptate work solution are added to stop the reaction and phosphorylated peptide substrate is detected using Envision 2104 Multilabeled reader from PerkinElmer. The fluorescence is measured at 615 nm (Cryptate) and 665 nm (XL665) and a ratio of 665 nm/615 nm is calculated for each well. The resulting TR-FRET level (a ratio of 665 nm/615 nm) is proportional to the phosphorylation level of substrate.

Row | EC50 [nM] | SMILES
1 | ≤ 50 | CC(C)n1cnnc1-c1cccc(-c2ncc(-c3cccc(N4CCCC4)c3)o2)n1 [Compound I-125]
2 | ≤ 50 | CC(C)n1cnnc1-c1cccc(-c2ncc(-c3cccc(N4CCN(S(C)(=O)=O)CC4)c3)o2)n1 [Compound I-119]
3 | ≤ 50 | Cc1ccccc1-c1cnc(-c2cccc(-c3nncn3C(C)C)n2)o1 [Compound I-024]
4 | ≤ 50 | CC(C)n1cnnc1-c1cccc(-c2ncc(-c3cccc(N4CCOCC4)c3)o2)n1 [Compound I-110]
5 | 50 to 500 | c1ccc(-c2cnc(-c3cccc(-c4nncn4C4CC4)n3)o2)cc1 [Compound I-017]
6 | ≤ 50 | Cc1ccc(-c2cnc(-c3cccc(-c4nncn4C(C)CO)n3)o2)c(F)c1 (centres unmarked) [Compound I-001, 2-(3-(6-(5-(2-Fluoro-4-methylphenyl)oxazol-2-yl)pyridin-2-yl)-4H-1,2,4-triazol-4-yl) propan-1-ol]
7 | 50 to 500 | CC(C)n1cnnc1-c1cccc(-c2ncc(-c3cccc(-c4ccccn4)c3)o2)n1 [Compound I-106]
8 | 50 to 500 | CC(C)n1cnnc1-c1cccc(-c2ncc(-c3ccc4ccccc4c3)o2)n1 [Compound I-101]
9 | ≤ 50 | CNc1ccc(-c2cnc(-c3cccc(-c4nncn4C(C)C)n3)o2)cc1 [Compound I-060]
10 | ≤ 50 | CC(C)n1cnnc1-c1cccc(-c2ncc(-c3cccc(C4CC4)c3)o2)n1 [Compound I-040]
11 | ≤ 50 | Cc1ccccc1-c1cnc(-c2cccc(-c3nncn3[C@H](C)CO)n2)o1 [Compound I-025]
12 | 50 to 500 | COC(=O)c1ccc(-c2cnc(-c3cccc(-c4nncn4C(C)C)n3)o2)cc1 [Compound I-093]
13 | ≤ 50 | CC(C)n1cnnc1-c1cccc(-c2ncc(-c3ccccc3)o2)n1 [Compound I-002, 2-(5-Phenyl-1,3-oxazol-2-yl)-6-[4-(propan-2-yl)-4H-1,2,4-triazol-3-yl] pyridine]
14 | ≤ 50 | CC(C)n1cnnc1-c1cccc(-c2ncc(-c3cccc(N4CCN(C)CC4)c3)o2)n1 [Compound I-115]
15 | ≤ 50 | C[C@H](CO)n1cnnc1-c1cccc(-c2ncc(-c3ccc(S(C)(=O)=O)cc3)o2)n1 [Compound I-098]
16 | ≤ 50 | CC(C)n1cnnc1-c1cccc(-c2ncc(-c3cccc(C4CCOCC4)c3)o2)n1 [Compound I-109]
17 | ≤ 50 | CC(C)n1cnnc1-c1cccc(-c2ncc(-c3cccc(-c4cccnc4)c3)o2)n1 [Compound I-107]
18 | ≤ 50 | C[C@H](CO)n1cnnc1-c1cccc(-c2ncc(-c3cccc(S(C)(=O)=O)c3)o2)n1 [Compound I-097]
19 | ≤ 50 | CC(C)n1cnnc1-c1cccc(-c2ncc(-c3cccc(N4CCNCC4)c3)o2)n1 [Compound I-113]
20 | 50 to 500 | CC(C)c1ccc(-c2cnc(-c3cccc(-c4nncn4C(C)C)n3)o2)cc1 [Compound I-035]
21 | 50 to 500 | CC(C)n1cnnc1-c1cccc(-c2ncc(-c3ccc(OC(F)(F)F)cc3)o2)n1 [Compound I-081]
22 | 50 to 500 | CCc1ccc(-c2cnc(-c3cccc(-c4nncn4C(C)C)n3)o2)cc1 [Compound I-036]
23 | ≤ 50 | CCN1CCN(c2cccc(-c3cnc(-c4cccc(-c5nncn5C(C)C)n4)o3)c2)CC1 [Compound I-010, 5-(3-(4-Ethylpiperazin-1-yl)phenyl)-2-(6-(4-isopropyl-4H-1,2,4-triazol-3-yl)pyridin-2-yl)oxazole]
24 | 50 to 500 | CC(C)n1cnnc1-c1cccc(-c2ncc(-c3ccc(C(C)(C)C)cc3F)o2)n1 [Compound I-045]
25 | 50 to 500 | Cc1ccc(-c2cnc(-c3cccc(-c4nncn4[C@@H](C)CO)n3)o2)c(F)c1 [Compound I-043]
26 | ≤ 50 | C[C@H](CO)n1cnnc1-c1cccc(-c2ncc(-c3cccc(N)c3)o2)n1 [Compound I-064]
27 | ≤ 50 | CC(C)n1cnnc1-c1cccc(-c2ncc(-c3cccc(N4CCC(NC(=O)OC(C)(C)C)C4)c3)o2)n1 (centres unmarked) [Compound I-128]

Row | EC50 [nM] | SMILES
28 | ≤ 50 | CC(C)n1cnnc1-c1cccc(-c2ncc(-c3ccccc3O)o2)n1 [Compound I-072]
29 | 500 to 5000 | CC(C)n1cnnc1-c1cccc(-c2ncc(-c3cccc(C4CCCCC4)c3)o2)n1 [Compound I-131]
30 | 50 to 500 | CC(C)n1cnnc1-c1cccc(-c2ncc(-c3ccncc3)o2)n1 [Compound I-021]
31 | ≤ 50 | CC(C)n1cnnc1-c1cccc(-c2ncc(-c3ccc(C(=O)O)cc3)o2)n1 [Compound I-094]
32 | 50 to 500 | CC(C)n1cnnc1-c1cccc(-c2ncc(-c3cccc(C4=CCCCC4)c3)o2)n1 [Compound I-132]
33 | ≤ 50 | COC(=O)c1cccc(-c2cnc(-c3cccc(-c4nncn4C(C)C)n3)o2)c1 [Compound I-092]
34 | 50 to 500 | CC(C)n1cnnc1-c1cccc(-c2ncc(-c3cccc(C4=CCCC4)c3)o2)n1 [Compound I-134]
35 | 50 to 500 | CC(C)n1cnnc1-c1cccc(-c2ncc(-c3cccc(C(F)(F)F)c3)o2)n1 [Compound I-086]
36 | 50 to 500 | CC(C)n1cnnc1-c1cccc(-c2ncc(-c3cccc(-c4ccccc4)c3)o2)n1 [Compound I-104]
37 | 50 to 500 | CC(C)n1cnnc1-c1cccc(-c2ncc(-c3cccc(C(=O)O)c3)o2)n1 [Compound I-008, 3-(2-[6-[4-(Propan-2-yl)-4H-1,2,4-triazol-3-yl]pyridin-2-yl]-1,3-oxazol-5-yl)benzoic acid]
38 | ≤ 50 | CC(C)n1cnnc1-c1cccc(-c2ncc(-c3cccc(N4CCC(N)C4)c3)o2)n1 (centres unmarked) [Compound I-127]
39 | ≤ 50 | CC(C)n1cnnc1-c1cccc(-c2ncc(-c3cccc(N(C)C)c3)o2)n1 [Compound I-058]
40 | ≤ 50 | Cc1ccc(-c2cnc(-c3cccc(-c4nncn4C(C)C)n3)o2)cc1 [Compound I-029]
41 | ≤ 50 | C[C@H](CO)n1cnnc1-c1cccc(-c2ncc(-c3c(F)cccc3F)o2)n1 [Compound I-051]
42 | ≤ 50 | CCCCCCOc1cccc(-c2cnc(-c3cccc(-c4nncn4[C@H](C)CO)n3)o2)c1 [Compound I-077]
43 | ≤ 50 | CC(C)n1cnnc1-c1cccc(-c2ncc(-c3ccc(N(C)C)cc3)o2)n1 [Compound I-057]
44 | ≤ 50 | C[C@H](CO)n1cnnc1-c1cccc(-c2ncc(-c3cccc(S(N)(=O)=O)c3)o2)n1 [Compound I-099]
45 | 50 to 500 | Cc1cccc(F)c1-c1cnc(-c2cccc(-c3nncn3C(C)C)n2)o1 [Compound I-044]
46 | 50 to 500 | Cc1ccc(-c2cnc(-c3cccc(-c4nncn4C(C)C)n3)s2)c(F)c1 [Compound I-003, 5-(2-Fluoro-4-methylphenyl)-2-(6-(4-isopropyl-4H-1,2,4-triazol-3-yl)pyridin-2-yl)thiazole]
47 | ≤ 50 | C[C@H](CO)n1cnnc1-c1cccc(-c2ncc(-c3cccc(C4CCCC4)c3)o2)n1 [Compound I-135]
48 | 50 to 500 | CC(C)n1cnnc1-c1cccc(-c2ncc(-c3ccc4c(c3)CCCC4)o2)n1 [Compound I-103]
49 | ≤ 50 | CC(C)n1cnnc1-c1cccc(-c2ncc(-c3ccc(OC(F)F)cc3)o2)n1 [Compound I-084]
50 | ≤ 50 | Cc1ccc(-c2cnc(-c3cccc(-c4nncn4[C@H](C)CO)n3)o2)cc1 [Compound I-030]
51 | ≤ 50 | CC(C)n1cnnc1-c1cccc(-c2ncc(-c3cccc(-c4ccncc4)c3)o2)n1 [Compound I-108]
52 | 50 to 500 | CCC(C)n1cnnc1-c1cccc(-c2ncc(-c3ccccc3C)o2)n1 (centres unmarked) [Compound I-026]
53 | ≤ 50 | Cc1ccc(-c2cnc(-c3cccc(-c4nncn4[C@H](C)CO)n3)o2)c(F)c1 [Compound I-042]

— US20210179600A1, “OXAZOLE AND THIAZOLE DERIVATIVES AS INHIBITORS OF ASK1” (Hepagene Therapeutics (HK) Limited, priority 2017, published 2021)
